Measured values: publication PMC7265552 (Scientific Reports, 2020)
Where a chain is given by its changes, count along the chain named. Read-outs that look alike come from different tables or passages of the source.

Legend:
[1] = molecular target: T1, mouse WT TYK2 (Mus musculus, UniProt Q9R117); experiment: JAK Caliper enzyme end-point IC50 assay, mouse WT TYK2; format: biochemical
T1 construct: His-tagged recombinant human TYK2, mouse TYK2, and human TYK2 I960V mutant kinase domains were expressed in insect cell/baculovirus systems; His; made in house; host or cells: insect cell/baculovirus
T1 sequence (Q9R117 894-1166 limits assumed): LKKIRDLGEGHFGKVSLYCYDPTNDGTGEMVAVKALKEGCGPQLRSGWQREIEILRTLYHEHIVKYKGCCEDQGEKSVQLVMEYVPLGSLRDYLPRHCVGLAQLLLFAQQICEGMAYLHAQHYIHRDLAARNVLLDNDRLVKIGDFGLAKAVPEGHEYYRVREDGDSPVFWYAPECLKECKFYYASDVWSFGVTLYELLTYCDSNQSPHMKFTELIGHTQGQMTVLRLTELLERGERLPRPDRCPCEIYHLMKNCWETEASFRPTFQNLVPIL

[2] = molecular target: T2, human TYK2 I960V mutant (Homo sapiens, UniProt P29597, I960V); experiment: JAK Caliper enzyme end-point IC50 assay, human TYK2 I960V mutant; details: read-out: Human TYK2 I960V IC50; ATP 1 mM; geometric mean ± SD
T2 sequence (P29597 897-1176 I960V limits assumed): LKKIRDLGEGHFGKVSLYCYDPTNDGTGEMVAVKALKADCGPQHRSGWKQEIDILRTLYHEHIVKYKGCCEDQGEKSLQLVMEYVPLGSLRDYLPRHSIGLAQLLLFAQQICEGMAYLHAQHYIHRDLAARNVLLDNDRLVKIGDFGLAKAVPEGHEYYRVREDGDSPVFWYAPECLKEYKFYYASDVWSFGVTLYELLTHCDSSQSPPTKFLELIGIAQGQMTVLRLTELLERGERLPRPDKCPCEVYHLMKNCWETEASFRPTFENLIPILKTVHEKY

[3] = molecular target: T3, human WT TYK2 (Homo sapiens, UniProt P29597); experiment: JAK Caliper enzyme end-point IC50 assay, human WT TYK2; format: biochemical; details: ATP 1 mM; geometric mean ± SD
T3 construct: His-tagged recombinant human TYK2, mouse TYK2, and human TYK2 I960V mutant kinase domains were expressed in insect cell/baculovirus systems; His; made in house; host or cells: insect cell/baculovirus
T3 sequence (P29597 897-1176 limits assumed): T2 sequence (P29597 897-1176 I960V limits assumed) with V64I

[4] = tested on: IL-12/IL-18 induced IFNγ production; experiment: PK/PD IL-12/18 induced interferonγ production model, TYK2 V980I mice; format: in vivo, C57BL/6 TYK2 V980I mice; details: Mus musculus, 4 h, read-out: IC50 (IC50,u) for inhibition of IL-12/IL-18-induced IFNγ production
[5] = tested on: IL-12/IL-18 induced IFNγ production; experiment: PK/PD IL-12/18 induced interferonγ production model, wild type mice; format: in vivo, C57BL/6 wild type mice; details: Mus musculus, 4 h, read-out: IC50 (IC50,u) for inhibition of IL-12/IL-18-induced IFNγ production
[6] = tested on: IL-15 (JAK1/JAK3) induced pSTAT5; experiment: Phospho-STAT inhibition in lymphocytes, IL-15, human; format: cell-based; details: Leukocyte, read-out: IL-15 (JAK1/JAK3) induced pSTAT5 IC50, Human WT
[7] = tested on: IL-12 (TYK2/JAK2) induced pSTAT4; experiment: Phospho-STAT inhibition in lymphocytes, IL-12, mouse WT; format: cell-based, mouse (C57BL/6); details: Leukocyte, read-out: IL-12 (TYK2/JAK2) induced pSTAT4 IC50, Mouse WT
[8] = tested on: IL-12 (TYK2/JAK2) induced pSTAT4; experiment: Phospho-STAT inhibition in lymphocytes, IL-12, mouse V980I knock-in; format: cell-based, mouse (C57BL/6 TYK2 V980I knock-in); details: Lymphocyte, read-out: IL-12 (TYK2/JAK2) induced pSTAT4 IC50, Mouse V980I KI
[9] = tested on: IL-12 (TYK2/JAK2) induced pSTAT4; experiment: Phospho-STAT inhibition in lymphocytes, IL-12, dog; format: cell-based, dog (Beagle); details: Canis lupus familiaris, Leukocyte, read-out: IL-12 (TYK2/JAK2) induced pSTAT4 IC50, Dog WT
[10] = tested on: IL-15 (JAK1/JAK3) induced pSTAT5; experiment: Phospho-STAT inhibition in lymphocytes, IL-15, mouse WT; format: cell-based, mouse (C57BL/6); details: Leukocyte, read-out: IL-15 (JAK1/JAK3) induced pSTAT5 IC50, Mouse WT
[11] = tested on: IL-12 (TYK2/JAK2) induced pSTAT4; experiment: Phospho-STAT inhibition in lymphocytes, IL-12, human; format: cell-based; details: geomean ± SD, four experiments
[12] = tested on: IL-12 (TYK2/JAK2) induced pSTAT4; experiment: Phospho-STAT inhibition in lymphocytes, IL-12, monkey; format: cell-based, monkey (cynomolgus); details: Primates, Leukocyte, read-out: IL-12 (TYK2/JAK2) induced pSTAT4 IC50, Monkey WT

Row | Compound | IC50 ([1]; ATP 1 mM, geometric mean ± SD) [nM] | IC50 [2] [nM] | IC50 [3] [nM] | further results
1 | CCNC(=O)c1ccc(Nc2ncc(C)c(N3C[C@H]4C[C@@H]3CN4S(C)(=O)=O)n2)cc1 [Compound 15] | 5240 ± 605 | 3590 ± 257 | 371 ± 37 | 
2 | CCNC(=O)c1ccc(Nc2nccc(N3C[C@H]4C[C@@H](C3)N4C(=O)C(F)(F)F)n2)cc1 [Compound 16] | 3580 ± 1980 | 2570 ± 1560 | 135 ± 89 | 
3 | CCNC(=O)c1ncc(Nc2ncc(F)c(N3C[C@H]4CC[C@@H](C3)N4CCC#N)n2)cc1C [Compound 17] | 1520 ± 217 | 1220 ± 220 | 46 ± 11 | 
4 | CCNC(=O)c1ncc(Nc2ncc(Cl)c(N3C[C@H]4C[C@@]4(NC(=O)C4CC4)C3)n2)cc1C [Compound 18] | 841 ± 989 | 538 ± 622 | 35 ± 34 | 
5 | CNC(=O)c1ncc(Nc2nccc(N3C[C@H]4C[C@@]4(NC(=O)C4CC4)C3)n2)cc1C [Compound 19] | 8160 ± 2030 | 7390 ± 1950 | 208 ± 51 | 
6 | Cc1cnc(Nc2cnn(CCO)c2)nc1N1CC2C[C@@]2(NC(=O)C2CC2)C1 (some centres unmarked) [Compound 20] | 784 ± 207 | 435 ± 174 | 67 ± 21 | 
7 | Cc1cnc(Nc2cnn(C)c2)nc1N1C[C@H]2[C@@H](C)[C@@]2(NC(=O)C2CC2)C1 [Compound 21] | 1160 ± 1040 | 484 ± 369 | 50 ± 46 | 
8 | Cn1cc(Nc2nccc(N3C[C@H]4CC[C@@H](C3)N4CCC#N)n2)cn1 [Compound 22] | 1330 ± 396 | 1020 ± 263 | 73 ± 18 | 
9 | C[C@@H]1C2CN(c3nc(Nc4cn[nH]c4)ncc3F)C[C@@]21NC(=O)[C@H]1CC1(F)F (some centres unmarked) [Compound 23] | 466 ± 78 | 388 ± 50 | 13 ± 4 | 
10 | Cn1cc(Nc2ncc(F)c(N3C[C@H]4C[C@@]4(NC(=O)[C@@H]4CC4(F)F)C3)n2)cn1 [Compound 26] | 2120 ± 465 | 1560 ± 257 | 38 ± 8 | 
11 | Cc1cnc(Nc2cnn(C)c2)nc1N1C[C@H]2CC[C@@H](C1)N2C(=O)[C@@H]1CC1(F)F [Compound 28] | 180 ± 89 | 55 ± 25 | 15 ± 6 | 
12 | Cn1cc(Nc2ncc(Cl)c(N3C[C@H]4CC[C@@H](C3)N4C(=O)[C@@H]3CC3(F)F)n2)cn1 [Compound 29] | 100 ± 17 | 30 ± 1 | 8 ± 4 | 
13 | C[C@@H]1[C@@H]2CN(c3nc(Nc4cnn(C)c4)ncc3F)C[C@]12NC(=O)[C@@H]1CC1(F)F [PF-06673518] |  |  |  | IC50 [4]: 26.6 nM; IC50 [1]: 1410 nM; IC50 [5]: 1280 nM; IC50 [6]: 135 ± 15 nM; IC50 [7]: 518 ± 84 nM; IC50 [8]: 128 ± 11 nM; IC50 [9]: 679 ± 254 nM; IC50 [10]: 127 ± 6.7 nM; IC50 ([11]; Homo sapiens, Leukocyte, read-out: IL-12 (TYK2/JAK2) induced pSTAT4 IC50, Human WT, human leukocytes, no serum or other proteins): 64 nM; IC50 ([11]; read-out: IL-12 (TYK2/JAK2) induced pSTAT4 IC50, Human WT, human leukocytes, no serum or other proteins): 64.3 ± 10 nM; IC50 [12]: 527 ± 147 nM
